From patent publication US11396502B2, “Substituted heterocyclic derivatives as PI3K inhibitors” (Incyte Corporation, priority 2018, dated 2022)
Where a name gives a salt, the structure may show the parent alone.

How the values were obtained:
PI3Kγ (p110γ) = PI3Kγ (p110γ) (Homo sapiens (Human), UniProt P48736); test: PI3K-γ scintillation proximity assay; type: biochemical; conditions: recombinant human PI3Kγ 13 nM, 20 μM PIP2, 2 μM ATP, 120 min, room temperature
From the text: Example B. PI3K-γ Scintillation Proximity Assay Materials: [γ-^33P]ATP (10 mCi/mL) and Wheat Germ Agglutinin (WGA) YSi SPA Scintillation Beads was purchased from Perkin Elmer (Waltham, Mass.). Lipid kinase substrate, D-myo-Phosphatidylinositol 4,5-bisphosphate (PtdIns(4,5)P2)D (+)-sn-1,2-di-O-octanoylglyceryl, 3-O-phospho linked (PIP2), CAS 204858-53-7, was purchased from Echelon Biosciences (Salt Lake City, Utah). PI3Kγ (p110γ) Recombinant Human Protein was purchased from Life technology (Grand Island, N.Y.). ATP, MgCl2, DTT, EDTA, MOPS and CHAPS were purchased from Sigma Aldrich (St. Louis, Mo.). The kinase reaction was conducted in polystyrene 384-well Greiner Bio-one white plate from Thermo Fisher Scientific in a final volume of 25 μL. Inhibitors were first diluted serially in DMSO and added to the plate wells before the addition of other reaction components. The final concentration of DMSO in the assay was 2%. The PI3Kγ assay was carried out at room temperature in 20 mM MOPS, pH 6.7, 10 mM MgCl2, 5 mM DTT and CHAPS 0.03%. Reactions were initiated by the addition of ATP, the final reaction mixture consisted of 20 μM PIP2, 2 μM ATP, 0.5 μCi [γ-^33P] ATP, 13 nM PI3Kγ. Reactions were incubated for 120 min and terminated by the addition of 40 μL SPA beads suspended in quench buffer: 163 mM potassium phosphate pH 7.8, 20% glycerol, 25 mM EDTA. The final concentration of SPA beads is 1.0 mg/mL. After the plate sealing, plates were shaken overnight at room temperature and centrifuged at 1500 rpm for 10 min, the radioactivity of the product was determined by scintillation counting on Topcount (Perkin-Elmer). IC50 determination was performed by fitting the curve of percent of the solvent control activity versus the log of the inhibitor concentration using the GraphPad Prism 6.0 software.

[1] = system: Phosphorylated Ribosomal Protein S6 (RPS6) in THP-1 cells; test: THP-1 RPS6 ELISA assay; type: cell-based, Human; conditions: Homo sapiens, THP-1, serum starved THP-1 cells, 2 hours compound, 10 nM MCP-1 for 15 minutes, Phospho-RPS6 ELISA; read-out: PI3Kγ_THP1_RPS6_ELISA IC50
Protocol: Example A. THP-1 RPS6 ELISA Assay
To measure the Phosphorylated Ribosomal Protein S6 (RPS6) in cell lysates, THP-1 cells (Human Acute Monocytic Leukemia) are purchased from ATCC (Manassas, Va.) and maintained in RPMI with 10% FBS (Gibco/Life Technologies, Carlsbad, Calif.). For the assay, THP-1 cells are serum starved overnight in RPMI, then plated in RPMI (2×10^5 cells/well in 90 μL) into 96-well flat-bottom tissue culture treated plates (Corning, Corning, N.Y.), in the presence or absence of a concentration range of test compounds. Covered plates are incubated for 2 hours at 37° C., 5% CO2 then treated with or without 10 nM MCP-1 (MYBioSource, San Diego, Calif.) for 15 minutes at 37° C., 5% CO2. Plates are centrifuged at 1600 RPM and supernatants are removed. Cells are lysed in Lysis Buffer (Cell Signaling, Danvers, Mass.) with Protease Inhibitor (Calbiochem/EMD, Germany), PMSF (Sigma, St Louis Mo.), HALTS (Thermo Fisher, Rockford, Ill.) for 30 min on wet ice. Cell lysates are frozen at −80° C. before testing. The lysates are tested in the Human/Mouse/Rat Phospho-RPS6 ELISA (R&D Systems, Inc. Minn, Minn.). The plate is measured using a microplate reader (SpectraMax M5—Molecular Devices, LLC Sunnyvale, Calif.) set to 450 nm with a wavelength correction of 540. IC50 determination is performed by fitting the curve of inhibitor percent inhibition versus the log of the inhibitor concentration using the GraphPad Prism 5.0 software.

PI3Kδ (p110δ/p85α) = PI3Kδ (p110δ/p85α) (Homo sapiens (Human), UniProt O00329); test: PI3Kδ scintillation proximity assay; type: biochemical; conditions: recombinant human PI3Kδ 3.4 nM, 20 μM PIP2, 2 μM ATP, 120 min, room temperature
PI3Kδ (p110δ/p85α), sequence (O00329 whole entry): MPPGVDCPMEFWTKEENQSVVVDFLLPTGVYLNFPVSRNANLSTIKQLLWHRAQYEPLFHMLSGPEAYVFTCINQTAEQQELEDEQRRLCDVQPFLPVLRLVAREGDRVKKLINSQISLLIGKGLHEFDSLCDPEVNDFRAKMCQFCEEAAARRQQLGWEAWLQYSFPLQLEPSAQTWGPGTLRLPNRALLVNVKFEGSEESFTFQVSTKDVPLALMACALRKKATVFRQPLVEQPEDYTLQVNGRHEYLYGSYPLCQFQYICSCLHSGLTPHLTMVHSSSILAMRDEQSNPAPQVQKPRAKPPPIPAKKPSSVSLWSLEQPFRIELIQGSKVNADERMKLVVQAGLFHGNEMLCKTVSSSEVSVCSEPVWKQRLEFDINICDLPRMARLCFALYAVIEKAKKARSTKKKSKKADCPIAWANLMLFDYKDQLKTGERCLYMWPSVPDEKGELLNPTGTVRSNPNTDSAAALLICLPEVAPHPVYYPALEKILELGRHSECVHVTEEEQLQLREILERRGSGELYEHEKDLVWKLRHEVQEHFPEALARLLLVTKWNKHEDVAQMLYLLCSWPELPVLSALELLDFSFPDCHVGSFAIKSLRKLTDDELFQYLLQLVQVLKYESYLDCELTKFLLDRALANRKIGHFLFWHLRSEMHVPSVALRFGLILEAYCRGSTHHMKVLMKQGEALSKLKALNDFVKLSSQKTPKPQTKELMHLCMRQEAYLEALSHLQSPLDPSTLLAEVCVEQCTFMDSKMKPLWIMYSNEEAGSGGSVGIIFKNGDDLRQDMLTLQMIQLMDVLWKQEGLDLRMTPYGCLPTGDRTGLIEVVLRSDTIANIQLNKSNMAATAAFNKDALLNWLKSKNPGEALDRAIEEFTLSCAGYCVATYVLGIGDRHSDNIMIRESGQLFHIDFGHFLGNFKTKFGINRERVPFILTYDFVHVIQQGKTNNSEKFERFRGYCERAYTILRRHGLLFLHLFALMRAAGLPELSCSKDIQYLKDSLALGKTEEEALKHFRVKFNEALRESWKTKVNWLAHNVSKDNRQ
PI3Kδ (p110δ/p85α), sequence (P27986 whole entry partner): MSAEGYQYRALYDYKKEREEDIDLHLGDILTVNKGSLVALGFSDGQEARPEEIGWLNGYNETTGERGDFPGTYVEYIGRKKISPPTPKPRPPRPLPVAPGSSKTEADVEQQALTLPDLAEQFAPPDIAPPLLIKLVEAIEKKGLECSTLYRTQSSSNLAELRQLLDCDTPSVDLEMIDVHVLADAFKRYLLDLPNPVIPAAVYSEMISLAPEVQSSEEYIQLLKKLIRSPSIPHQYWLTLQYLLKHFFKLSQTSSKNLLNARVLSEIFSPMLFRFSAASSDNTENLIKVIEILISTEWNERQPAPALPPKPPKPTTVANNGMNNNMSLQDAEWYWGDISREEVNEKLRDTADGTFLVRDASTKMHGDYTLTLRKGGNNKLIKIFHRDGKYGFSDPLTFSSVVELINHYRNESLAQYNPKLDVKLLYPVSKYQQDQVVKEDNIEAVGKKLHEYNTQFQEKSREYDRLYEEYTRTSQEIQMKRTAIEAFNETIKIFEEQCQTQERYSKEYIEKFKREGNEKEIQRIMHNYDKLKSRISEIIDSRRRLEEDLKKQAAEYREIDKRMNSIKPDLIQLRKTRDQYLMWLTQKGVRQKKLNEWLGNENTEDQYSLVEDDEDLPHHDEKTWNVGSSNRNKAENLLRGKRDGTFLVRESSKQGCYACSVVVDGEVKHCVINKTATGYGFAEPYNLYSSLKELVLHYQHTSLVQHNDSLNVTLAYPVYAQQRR
From the text: Example C. PI3Kδ Scintillation Proximity Assay Materials: [γ-^33P]ATP (10 mCi/mL) and Wheat Germ Agglutinin (WGA) YSi SPA Scintillation Beads was purchased from Perkin Elmer (Waltham, Mass.). Lipid kinase substrate, D-myo-Phosphatidylinositol 4,5-bisphosphate (PtdIns(4,5)P2)D (+)-sn-1,2-di-O-octanoylglyceryl, 3-O-phospho linked (PIP2), CAS 204858-53-7, was purchased from Echelon Biosciences (Salt Lake City, Utah). PI3Kδ (p110δ/p85α) Recombinant Human Protein was purchased from Eurofins (St Charles, Mo.). ATP, MgCl2, DTT, EDTA, MOPS and CHAPS were purchased from Sigma Aldrich (St. Louis, Mo.). The kinase reaction was conducted in polystyrene 384-well Greiner Bio-one white plate from Thermo Fisher Scientific in a final volume of 25 μL. Inhibitors were first diluted serially in DMSO and added to the plate wells before the addition of other reaction components. The final concentration of DMSO in the assay was 2%. The PI3Kδ assay was carried out at room temperature in 20 mM MOPS, pH 6.7, 10 mM MgCl2, 5 mM DTT and CHAPS 0.03%. Reactions were initiated by the addition of ATP, the final reaction mixture consisted of 20 μM PIP2, 2 μM ATP, 0.5 μCi [γ-^33P] ATP, 3.4 nM PI3Kδ. Reactions were incubated for 120 min and terminated by the addition of 40 μL SPA beads suspended in quench buffer: 163 mM potassium phosphate pH 7.8, 20% glycerol, 25 mM EDTA. The final concentration of SPA beads is 1.0 mg/mL. After the plate sealing, plates were shaken overnight at room temperature and centrifuged at 1500 rpm for 10 min, the radioactivity of the product was determined by scintillation counting on Topcount (PerkinElmer). IC50 determination was performed by fitting the curve of percent of the solvent control activity versus the log of the inhibitor concentration using the GraphPad Prism 6.0 software.

PI3Kγ (p110γ), sequence (P48736 whole entry): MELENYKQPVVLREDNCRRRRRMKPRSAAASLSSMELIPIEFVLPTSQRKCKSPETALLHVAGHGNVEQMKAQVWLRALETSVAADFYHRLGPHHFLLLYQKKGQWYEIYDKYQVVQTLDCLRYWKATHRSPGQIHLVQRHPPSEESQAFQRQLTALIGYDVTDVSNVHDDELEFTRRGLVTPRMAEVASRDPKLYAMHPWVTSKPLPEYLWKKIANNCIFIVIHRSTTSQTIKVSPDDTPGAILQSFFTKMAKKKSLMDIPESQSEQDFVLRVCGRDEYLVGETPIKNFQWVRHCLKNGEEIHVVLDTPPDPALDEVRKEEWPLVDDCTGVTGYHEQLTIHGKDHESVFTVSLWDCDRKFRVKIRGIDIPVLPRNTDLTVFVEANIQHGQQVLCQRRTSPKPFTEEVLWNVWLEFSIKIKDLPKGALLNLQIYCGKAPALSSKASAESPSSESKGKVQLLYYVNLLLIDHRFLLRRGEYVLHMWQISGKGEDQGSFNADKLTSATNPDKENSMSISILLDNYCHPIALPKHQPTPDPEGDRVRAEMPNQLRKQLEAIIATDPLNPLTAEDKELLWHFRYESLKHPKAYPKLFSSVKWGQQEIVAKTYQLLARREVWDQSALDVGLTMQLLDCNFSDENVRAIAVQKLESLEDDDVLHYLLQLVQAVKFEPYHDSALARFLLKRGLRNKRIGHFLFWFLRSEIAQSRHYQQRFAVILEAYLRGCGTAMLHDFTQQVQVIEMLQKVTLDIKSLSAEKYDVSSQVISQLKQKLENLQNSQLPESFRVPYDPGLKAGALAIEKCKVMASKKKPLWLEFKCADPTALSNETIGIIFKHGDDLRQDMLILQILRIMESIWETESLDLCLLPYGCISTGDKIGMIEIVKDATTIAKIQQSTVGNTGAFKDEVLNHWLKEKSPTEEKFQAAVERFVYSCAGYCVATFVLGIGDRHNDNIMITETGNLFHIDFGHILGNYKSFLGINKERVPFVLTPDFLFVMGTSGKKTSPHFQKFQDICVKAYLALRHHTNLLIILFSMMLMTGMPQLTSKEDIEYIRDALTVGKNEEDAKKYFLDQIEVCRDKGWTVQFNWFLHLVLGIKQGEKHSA

Question: What does the source list for `Cc1[nH]c(-c2cc(-c3cc4c(c(S(C)(=O)=O)c3)C(=O)N([C@@H](C)C3CC3)C4)ccn2)nc1C(=O)NC1CCC1` [Example 7k, (S)-N-Cyclobutyl-2-(4-(2-(1-cyclopropylethyl)-7-(methylsulfonyl)-1-oxoisoindolin-5-yl)pyridin-2-yl)-4-methyl-1H-imidazole-5-carboxamide, trifluoroacetate salt]?
Answer: IC50 (PI3Kγ (p110γ)): < 100 nM; IC50 [1]: 100 to 500 nM; IC50 (PI3Kδ (p110δ/p85α)): 100 to 500 nM

Question: How did the IC50 (PI3Kγ (p110γ)) turn out when `Cc1[nH]c(-c2cc(-c3cc4c(c(S(C)(=O)=O)c3)C(=O)N([C@@H](C)C3CC3)C4)ccn2)nc1C(=O)NC1CN(C)C1` [Example 7m, (S)-2-(4-(2-(1-Cyclopropylethyl)-7-(methylsulfonyl)-1-oxoisoindolin-5-yl)pyridin-2-yl)-4-methyl-N-(1-methylazetidin-3-yl)-1H-imidazole-5-carboxamide, trifluoroacetate salt] was run?
Answer: < 100 nM

Question: And the IC50 [1]?
Answer: 500 to 1000 nM

Question: And the IC50 (PI3Kδ (p110δ/p85α))?
Answer: 500 to 2000 nM

Question: With `Cc1[nH]c(-c2cc(-c3cc4c(c(S(C)(=O)=O)c3)C(=O)N([C@@H](C)C3CC3)C4)ccn2)nc1C(=O)N(C)C1CCOCC1` [Example 7o, (S)-2-(4-(2-(1-Cyclopropylethyl)-7-(methylsulfonyl)-1-oxoisoindolin-5-yl)pyridin-2-yl)-N,4-dimethyl-N-(tetrahydro-2H-pyran-4-yl)-1H-imidazole-5-carboxamide, trifluoroacetate salt] as the compound, how does the IC50 (PI3Kγ (p110γ)) read?
Answer: < 100 nM

Question: What about the IC50 [1] of the same compound?
Answer: 100 to 500 nM

Question: And the IC50 (PI3Kδ (p110δ/p85α))?
Answer: 100 to 500 nM

Question: How did the IC50 (PI3Kγ (p110γ)) turn out when `Cc1[nH]c(-c2cc(-c3cc4c(c(S(C)(=O)=O)c3)C(=O)N([C@@H](C)C3CC3)C4)ccn2)nc1C(=O)N1CC2(COC2)C1` [Example 7p, (S)-2-(1-Cyclopropylethyl)-5-(2-(4-methyl-5-(2-oxa-6-azaspiro[3.3]heptane-6-carbonyl)-1H-imidazol-2-yl)pyridin-4-yl)-7-(methylsulfonyl)isoindolin-1-one, trifluoroacetate salt] was run?
Answer: < 100 nM

Question: What about the IC50 [1] of the same compound?
Answer: 100 to 500 nM

Question: What about the IC50 (PI3Kδ (p110δ/p85α)) of the same compound?
Answer: 500 to 2000 nM

Question: How did the IC50 (PI3Kγ (p110γ)) turn out when `Cc1[nH]c(-c2cc(-c3cc4c(c(S(C)(=O)=O)c3)C(=O)N([C@@H](C)C3CC3)C4)ccn2)nc1C(N)=O` [Example 7q, (S)-2-(4-(2-(1-Cyclopropylethyl)-7-(methylsulfonyl)-1-oxoisoindolin-5-yl)pyridin-2-yl)-4-methyl-1H-imidazole-5-carboxamide, trifluoroacetate salt] was run?
Answer: < 100 nM

Question: What about the IC50 [1] of the same compound?
Answer: > 1000 nM

Question: And the IC50 (PI3Kδ (p110δ/p85α))?
Answer: 500 to 2000 nM

Question: `CCNC(=O)c1nc(-c2cc(-c3cc4c(c(S(C)(=O)=O)c3)C(=O)N([C@@H](C)C3CC3)C4)ccn2)[nH]c1C` [Example 7r, (S)-2-(4-(2-(1-Cyclopropylethyl)-7-(methylsulfonyl)-1-oxoisoindolin-5-yl)pyridin-2-yl)-N-ethyl-4-methyl-1H-imidazole-5-carboxamide, trifluoroacetate salt] was tested. Which IC50 (PI3Kγ (p110γ)) did it give?
Answer: < 100 nM

Question: What about the IC50 [1] of the same compound?
Answer: 100 to 500 nM

Question: And the IC50 (PI3Kδ (p110δ/p85α))?
Answer: 500 to 2000 nM

Question: With `CCN(C)C(=O)c1nc(-c2cc(-c3cc4c(c(S(C)(=O)=O)c3)C(=O)N([C@@H](C)C3CC3)C4)ccn2)[nH]c1C` [Example 7s, (S)-2-(4-(2-(1-Cyclopropylethyl)-7-(methylsulfonyl)-1-oxoisoindolin-5-yl)pyridin-2-yl)-N-ethyl-N,4-dimethyl-1H-imidazole-5-carboxamide, trifluoroacetate salt] as the compound, how does the IC50 (PI3Kγ (p110γ)) read?
Answer: < 100 nM

Question: What about the IC50 [1] of the same compound?
Answer: 500 to 1000 nM

Question: What about the IC50 (PI3Kδ (p110δ/p85α)) of the same compound?
Answer: 500 to 2000 nM

Question: `Cc1[nH]c(-c2cc(-c3cc4c(c(S(C)(=O)=O)c3)C(=O)N([C@@H](C)C3CC3)C4)ccn2)nc1C(=O)N(C)C(C)C` [Example 7t, (S)-2-(4-(2-(1-Cyclopropylethyl)-7-(methylsulfonyl)-1-oxoisoindolin-5-yl)pyridin-2-yl)-N-isopropyl-N,4-dimethyl-1H-imidazole-5-carboxamide, trifluoroacetate salt] was tested. Which IC50 (PI3Kγ (p110γ)) did it give?
Answer: < 100 nM

Question: And the IC50 [1]?
Answer: 100 to 500 nM

Question: And the IC50 (PI3Kδ (p110δ/p85α))?
Answer: 500 to 2000 nM

Question: `Cc1[nH]c(-c2cc(-c3cc4c(c(S(C)(=O)=O)c3)C(=O)N([C@@H](C)C3CC3)C4)ccn2)nc1C(=O)N(C)C1CCC1` [Example 7u, (S)-N-Cyclobutyl-2-(4-(2-(1-cyclopropylethyl)-7-(methylsulfonyl)-1-oxoisoindolin-5-yl)pyridin-2-yl)-N,4-dimethyl-1H-imidazole-5-carboxamide, trifluoroacetate salt] was tested. Which IC50 (PI3Kγ (p110γ)) did it give?
Answer: < 100 nM

Question: What about the IC50 [1] of the same compound?
Answer: 100 to 500 nM

Question: What about the IC50 (PI3Kδ (p110δ/p85α)) of the same compound?
Answer: 500 to 2000 nM

Question: What does the source list for `C[C@@H](C1CC1)N1Cc2cc(-c3cnnc(-c4ccn[nH]4)c3)cc(S(C)(=O)=O)c2C1=O` [Example 9, (S)-5-(6-(1H-Pyrazol-5-yl)pyridazin-4-yl)-2-(1-cyclopropylethyl)-7-(methylsulfonyl)isoindolin-1-one Trifluoroacetate Salt]?
Answer: IC50 (PI3Kγ (p110γ)): 100 to 500 nM; IC50 [1]: > 1000 nM; IC50 (PI3Kδ (p110δ/p85α)): > 2000 nM

Question: Which IC50 (PI3Kγ (p110γ)) does the source give for `Cc1cc(-c2cc(-c3cc4c(c(S(C)(=O)=O)c3)C(=O)N([C@@H](C)C3CC3)C4)cnn2)[nH]n1` [Example 10, (S)-2-(1-Cyclopropylethyl)-5-(6-(3-methyl-1H-pyrazol-5-yl)pyridazin-4-yl)-7-(methylsulfonyl)isoindolin-1-one, trifluoroacetate salt] here?
Answer: 100 to 500 nM

Question: And the IC50 [1]?
Answer: > 1000 nM

Question: What about the IC50 (PI3Kδ (p110δ/p85α)) of the same compound?
Answer: > 2000 nM

Question: `Cc1nnc(-c2cc(-c3cc4c(c(S(C)(=O)=O)c3)C(=O)N([C@@H](C)C3CC3)C4)ccn2)[nH]1` [Example 12, (S)-2-(1-Cyclopropylethyl)-5-(2-(5-methyl-4H-1,2,4-triazol-3-yl)pyridin-4-yl)-7-(methylsulfonyl)isoindolin-1-one] was tested. Which IC50 (PI3Kγ (p110γ)) did it give?
Answer: < 100 nM

Question: And the IC50 [1]?
Answer: > 1000 nM

Question: What about the IC50 (PI3Kδ (p110δ/p85α)) of the same compound?
Answer: > 2000 nM

Question: For `Cc1cc(-c2cc(-c3cc4c(c(S(C)(=O)=O)c3)C(=O)N([C@@H](C)C3CC3)C4)ccn2)[nH]n1` [Example 14, (S)-2-(1-Cyclopropylethyl)-5-(2-(3-methyl-1H-pyrazol-5-yl)pyridin-4-yl)-7-(methylsulfonyl)isoindolin-1-one, Trifluoroacetate Salt], which IC50 (PI3Kγ (p110γ)) is on record?
Answer: < 100 nM

Question: What about the IC50 [1] of the same compound?
Answer: > 1000 nM

Question: And the IC50 (PI3Kδ (p110δ/p85α))?
Answer: > 2000 nM
